# Data from ChEMBL document CHEMBL4507283, “Data for DCP probe BI-1935” (2021).
# Assays:
# [1] = biological target: Casein kinase II subunit alpha (Homo sapiens) (UniProt P68400); conditions: Compound concentration 1000.0 nM
# [2] = test system: Tyrosine-protein kinase ABL1 (Homo sapiens), P00519 [H396P]; conditions: Compound concentration 1000.0 nM
# [3] = biological target: Calcium/calmodulin-dependent protein kinase type IV (Homo sapiens) (UniProt Q16566); conditions: Compound concentration 1000.0 nM
# [4] = biological target: Activin receptor type-1 (Homo sapiens) (UniProt Q04771); conditions: Compound concentration 1000.0 nM
# [5] = biological target: Serine/threonine-protein kinase Nek9 (Homo sapiens) (UniProt Q8TD19); conditions: Compound concentration 1000.0 nM
# [6] = biological target: Serotonin 2 (5-HT2) receptor (Rattus norvegicus) (UniProt P30994+P08909+P14842); assay: 5HT2/R Eurofins-Panlabs selectivity data (BI); type: protein assay; conditions: Compound concentration 10.0 uM
# [7] = biological target: T1, 5-hydroxytryptamine receptor 3A (Homo sapiens) (UniProt P46098); conditions: Compound concentration 10.0 uM
# T1 sequence (whole entry): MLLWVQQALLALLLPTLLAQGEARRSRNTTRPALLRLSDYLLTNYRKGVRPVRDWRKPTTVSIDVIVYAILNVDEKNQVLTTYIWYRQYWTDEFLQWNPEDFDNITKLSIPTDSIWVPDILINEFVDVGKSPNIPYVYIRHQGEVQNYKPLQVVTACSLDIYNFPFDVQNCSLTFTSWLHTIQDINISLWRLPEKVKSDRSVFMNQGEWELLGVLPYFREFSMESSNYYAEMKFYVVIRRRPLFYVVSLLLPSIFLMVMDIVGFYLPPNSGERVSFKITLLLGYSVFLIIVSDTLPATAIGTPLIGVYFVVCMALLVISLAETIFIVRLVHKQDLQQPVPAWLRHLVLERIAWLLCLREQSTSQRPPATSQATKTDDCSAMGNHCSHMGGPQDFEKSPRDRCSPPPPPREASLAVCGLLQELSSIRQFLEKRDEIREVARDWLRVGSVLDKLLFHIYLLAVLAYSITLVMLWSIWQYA
# [8] = biological target: Histamine H1 receptor (Homo sapiens) (UniProt P35367); assay: H1/H Eurofins-Panlabs selectivity data (BI); conditions: Compound concentration 10.0 uM
# [9] = test system: Tyrosine-protein kinase ABL1 (Homo sapiens), P00519 [Q252H]; conditions: Compound concentration 1000.0 nM
# [10] = biological target: 5-hydroxytryptamine receptor 4 (Cavia porcellus) (UniProt O70528); assay: 5HT4/GPIG Eurofins-Panlabs selectivity data (BI); conditions: Compound concentration 10.0 uM
# [11] = biological target: Tyrosine-protein kinase TXK (Homo sapiens) (UniProt P42681); conditions: Compound concentration 1000.0 nM
# [12] = biological target: STE20/SPS1-related proline-alanine-rich protein kinase (Homo sapiens) (UniProt Q9UEW8); conditions: Compound concentration 1000.0 nM
# [13] = biological target: Hepatocyte growth factor receptor (Homo sapiens) (UniProt P08581); conditions: Compound concentration 1000.0 nM
# [14] = test system: Epidermal growth factor receptor (Homo sapiens), P00533 [L858R]; conditions: Compound concentration 1000.0 nM
# [15] = biological target: Serine/threonine-protein kinase 10 (Homo sapiens) (UniProt O94804); conditions: Compound concentration 1000.0 nM
# [16] = biological target: Kappa-type opioid receptor (Homo sapiens) (UniProt P41145); conditions: Compound concentration 10.0 uM
# [17] = biological target: Tyrosine-protein kinase receptor UFO (Homo sapiens) (UniProt P30530); conditions: Compound concentration 1000.0 nM
# [18] = biological target: Calpain-1 catalytic subunit (Homo sapiens) (UniProt P07384); assay: MU-CALPAIN Eurofins-Panlabs selectivity data (BI); conditions: Compound concentration 10.0 uM
# [19] = biological target: D(2) dopamine receptor (Homo sapiens) (UniProt P14416); conditions: Compound concentration 10.0 uM
# [20] = biological target: Receptor-interacting serine/threonine-protein kinase 2 (Homo sapiens) (UniProt O43353); conditions: Compound concentration 1000.0 nM
# [21] = biological target: Ribosomal protein S6 kinase alpha-6 (Homo sapiens) (UniProt Q9UK32); conditions: Compound concentration 1000.0 nM
# [22] = biological target: Serine/threonine-protein kinase 17A (Homo sapiens) (UniProt Q9UEE5); conditions: Compound concentration 1000.0 nM
# [23] = biological target: Homeodomain-interacting protein kinase 4 (Homo sapiens) (UniProt Q8NE63); conditions: Compound concentration 1000.0 nM
# [24] = test system: ALK tyrosine kinase receptor (Homo sapiens), Q9UM73 [C1156Y]; conditions: Compound concentration 1000.0 nM
# [25] = test system: Phosphatidylinositol 4,5-bisphosphate 3-kinase catalytic subunit alpha isoform (Homo sapiens), P42336 [H1047Y]; conditions: Compound concentration 1000.0 nM
# [26] = biological target: Aurora kinase A (Homo sapiens) (UniProt O14965); conditions: Compound concentration 1000.0 nM
# [27] = biological target: Serine/threonine-protein kinase RIO1 (Homo sapiens) (UniProt Q9BRS2); conditions: Compound concentration 1000.0 nM
# [28] = biological target: Serine/threonine-protein kinase RIO3 (Homo sapiens) (UniProt O14730); conditions: Compound concentration 1000.0 nM
# [29] = biological target: Serine/threonine-protein kinase NLK (Homo sapiens) (UniProt Q9UBE8); conditions: Compound concentration 1000.0 nM
# [30] = biological target: BDNF/NT-3 growth factors receptor (Homo sapiens) (UniProt Q16620); conditions: Compound concentration 1000.0 nM
# [31] = test system: Phosphatidylinositol 4,5-bisphosphate 3-kinase catalytic subunit alpha isoform (Homo sapiens), P42336 [E545A]; conditions: Compound concentration 1000.0 nM
# [32] = biological target: Cyclin-dependent kinase 19 (Homo sapiens) (UniProt Q9BWU1); conditions: Compound concentration 1000.0 nM
# [33] = biological target: MAP kinase-activated protein kinase 5 (Homo sapiens) (UniProt Q8IW41); conditions: Compound concentration 1000.0 nM
# [34] = biological target: Protein kinase C eta type (Homo sapiens) (UniProt P24723); conditions: Compound concentration 1000.0 nM
# [35] = biological target: Calcium/calmodulin-dependent protein kinase type II subunit beta (Homo sapiens) (UniProt Q13554); conditions: Compound concentration 1000.0 nM
# [36] = biological target: LIM domain kinase 2 (Homo sapiens) (UniProt P53671); conditions: Compound concentration 1000.0 nM
# [37] = biological target: Serine/threonine-protein kinase TNNI3K (Homo sapiens) (UniProt Q59H18); conditions: Compound concentration 1000.0 nM
# [38] = biological target: Mitogen-activated protein kinase 10 (Homo sapiens) (UniProt P53779); conditions: Compound concentration 1000.0 nM
# [39] = biological target: Sodium-dependent noradrenaline transporter (Homo sapiens) (UniProt P23975); assay: NETRANS/H Eurofins-Panlabs selectivity data (BI); conditions: Compound concentration 10.0 uM
# Chain of MAP kinase-activated protein kinase 5 (Homo sapiens) (Q8IW41 whole entry): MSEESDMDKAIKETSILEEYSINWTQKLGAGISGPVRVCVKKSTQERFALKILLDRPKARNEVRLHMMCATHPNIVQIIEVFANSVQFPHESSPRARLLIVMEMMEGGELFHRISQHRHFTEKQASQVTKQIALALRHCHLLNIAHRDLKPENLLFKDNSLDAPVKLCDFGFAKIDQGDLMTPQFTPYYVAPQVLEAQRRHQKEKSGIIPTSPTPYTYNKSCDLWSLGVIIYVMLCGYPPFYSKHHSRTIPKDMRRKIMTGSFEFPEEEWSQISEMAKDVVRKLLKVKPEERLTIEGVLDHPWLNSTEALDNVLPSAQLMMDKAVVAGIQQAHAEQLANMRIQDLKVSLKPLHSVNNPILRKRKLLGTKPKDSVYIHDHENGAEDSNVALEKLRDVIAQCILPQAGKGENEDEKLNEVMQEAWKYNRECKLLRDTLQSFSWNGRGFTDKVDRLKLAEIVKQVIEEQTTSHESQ
# Chain of Tyrosine-protein kinase TXK (Homo sapiens) (P42681 whole entry): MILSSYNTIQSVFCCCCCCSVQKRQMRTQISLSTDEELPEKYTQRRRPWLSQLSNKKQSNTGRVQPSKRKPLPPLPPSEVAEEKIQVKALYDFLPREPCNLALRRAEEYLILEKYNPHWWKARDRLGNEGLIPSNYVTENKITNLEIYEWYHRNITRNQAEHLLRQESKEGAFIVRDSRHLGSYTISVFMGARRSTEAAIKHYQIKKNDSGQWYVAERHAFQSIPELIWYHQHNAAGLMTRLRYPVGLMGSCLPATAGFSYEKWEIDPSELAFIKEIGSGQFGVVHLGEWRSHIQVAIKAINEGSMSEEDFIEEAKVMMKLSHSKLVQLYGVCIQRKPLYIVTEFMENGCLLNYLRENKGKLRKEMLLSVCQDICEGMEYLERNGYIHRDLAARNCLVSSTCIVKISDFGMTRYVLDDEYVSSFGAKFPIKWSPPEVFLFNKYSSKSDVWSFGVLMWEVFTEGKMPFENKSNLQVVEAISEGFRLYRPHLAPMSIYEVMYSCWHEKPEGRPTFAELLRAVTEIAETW
# Chain of Phosphatidylinositol 4,5-bisphosphate 3-kinase catalytic subunit alpha isoform (Homo sapiens), P42336 [H1047Y] (P42336 whole entry H1047Y, canonical isoform): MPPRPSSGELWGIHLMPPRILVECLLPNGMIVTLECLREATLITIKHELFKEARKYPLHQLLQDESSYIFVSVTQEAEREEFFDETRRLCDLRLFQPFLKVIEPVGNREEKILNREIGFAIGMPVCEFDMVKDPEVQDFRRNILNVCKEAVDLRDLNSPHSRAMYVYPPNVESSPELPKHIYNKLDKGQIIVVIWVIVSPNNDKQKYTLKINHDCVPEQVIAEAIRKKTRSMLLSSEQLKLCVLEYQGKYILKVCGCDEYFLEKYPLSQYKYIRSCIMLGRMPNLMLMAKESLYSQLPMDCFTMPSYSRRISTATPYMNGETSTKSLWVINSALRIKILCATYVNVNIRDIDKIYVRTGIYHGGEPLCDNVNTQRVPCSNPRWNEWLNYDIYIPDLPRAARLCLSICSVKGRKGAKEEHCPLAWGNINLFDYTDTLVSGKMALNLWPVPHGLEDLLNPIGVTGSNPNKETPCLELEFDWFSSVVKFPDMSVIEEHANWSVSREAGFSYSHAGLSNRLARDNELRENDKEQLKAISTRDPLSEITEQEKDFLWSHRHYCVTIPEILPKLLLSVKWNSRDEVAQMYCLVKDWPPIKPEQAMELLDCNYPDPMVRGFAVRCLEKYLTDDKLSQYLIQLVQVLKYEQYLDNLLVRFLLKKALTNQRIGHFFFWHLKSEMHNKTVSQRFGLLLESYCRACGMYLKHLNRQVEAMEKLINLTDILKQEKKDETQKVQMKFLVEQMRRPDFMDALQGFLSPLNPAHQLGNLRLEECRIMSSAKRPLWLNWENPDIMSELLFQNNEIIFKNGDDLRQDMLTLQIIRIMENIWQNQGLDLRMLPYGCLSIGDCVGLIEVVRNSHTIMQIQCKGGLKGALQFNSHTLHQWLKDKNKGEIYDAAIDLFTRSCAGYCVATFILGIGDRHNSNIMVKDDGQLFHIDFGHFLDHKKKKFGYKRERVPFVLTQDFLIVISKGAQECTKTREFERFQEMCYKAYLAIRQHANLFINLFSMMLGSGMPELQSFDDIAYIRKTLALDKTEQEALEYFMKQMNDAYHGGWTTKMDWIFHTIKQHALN
# Chain of Hepatocyte growth factor receptor (Homo sapiens) (P08581 whole entry): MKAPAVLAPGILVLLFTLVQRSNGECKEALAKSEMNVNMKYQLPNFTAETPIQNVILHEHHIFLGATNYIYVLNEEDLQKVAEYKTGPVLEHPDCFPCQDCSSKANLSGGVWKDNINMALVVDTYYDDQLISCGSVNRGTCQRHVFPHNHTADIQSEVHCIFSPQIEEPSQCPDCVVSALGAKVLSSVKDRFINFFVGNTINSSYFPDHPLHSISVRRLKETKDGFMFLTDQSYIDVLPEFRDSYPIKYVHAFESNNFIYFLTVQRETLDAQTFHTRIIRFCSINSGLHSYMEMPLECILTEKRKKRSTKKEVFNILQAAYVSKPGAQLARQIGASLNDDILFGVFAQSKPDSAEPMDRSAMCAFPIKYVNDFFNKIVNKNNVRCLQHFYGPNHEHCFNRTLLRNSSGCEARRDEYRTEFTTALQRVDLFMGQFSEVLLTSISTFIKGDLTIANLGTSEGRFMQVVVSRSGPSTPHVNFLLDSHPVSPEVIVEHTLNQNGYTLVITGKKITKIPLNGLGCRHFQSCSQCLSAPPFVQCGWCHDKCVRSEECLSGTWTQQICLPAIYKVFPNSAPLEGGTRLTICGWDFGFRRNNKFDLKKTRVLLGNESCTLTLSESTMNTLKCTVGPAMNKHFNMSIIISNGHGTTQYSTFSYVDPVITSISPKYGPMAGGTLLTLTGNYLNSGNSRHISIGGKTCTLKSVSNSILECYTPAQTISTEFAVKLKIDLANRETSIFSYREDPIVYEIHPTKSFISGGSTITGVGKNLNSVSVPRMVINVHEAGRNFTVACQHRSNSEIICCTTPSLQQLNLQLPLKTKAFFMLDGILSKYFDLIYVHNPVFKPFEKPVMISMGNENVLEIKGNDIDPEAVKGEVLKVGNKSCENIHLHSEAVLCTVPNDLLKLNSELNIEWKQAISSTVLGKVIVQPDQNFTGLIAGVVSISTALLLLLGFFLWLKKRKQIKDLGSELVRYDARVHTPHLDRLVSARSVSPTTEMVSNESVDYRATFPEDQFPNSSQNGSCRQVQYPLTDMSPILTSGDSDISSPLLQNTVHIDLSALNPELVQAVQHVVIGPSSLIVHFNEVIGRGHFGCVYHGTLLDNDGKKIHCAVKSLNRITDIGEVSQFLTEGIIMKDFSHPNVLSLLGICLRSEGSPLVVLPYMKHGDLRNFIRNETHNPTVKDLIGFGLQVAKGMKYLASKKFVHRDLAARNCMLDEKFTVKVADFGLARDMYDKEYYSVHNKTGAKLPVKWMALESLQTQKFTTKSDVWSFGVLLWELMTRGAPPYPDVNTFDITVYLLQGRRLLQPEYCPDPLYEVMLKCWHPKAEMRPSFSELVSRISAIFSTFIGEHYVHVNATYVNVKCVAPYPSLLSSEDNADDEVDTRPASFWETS
# Chain of 5-hydroxytryptamine receptor 4 (Cavia porcellus) (O70528 whole entry): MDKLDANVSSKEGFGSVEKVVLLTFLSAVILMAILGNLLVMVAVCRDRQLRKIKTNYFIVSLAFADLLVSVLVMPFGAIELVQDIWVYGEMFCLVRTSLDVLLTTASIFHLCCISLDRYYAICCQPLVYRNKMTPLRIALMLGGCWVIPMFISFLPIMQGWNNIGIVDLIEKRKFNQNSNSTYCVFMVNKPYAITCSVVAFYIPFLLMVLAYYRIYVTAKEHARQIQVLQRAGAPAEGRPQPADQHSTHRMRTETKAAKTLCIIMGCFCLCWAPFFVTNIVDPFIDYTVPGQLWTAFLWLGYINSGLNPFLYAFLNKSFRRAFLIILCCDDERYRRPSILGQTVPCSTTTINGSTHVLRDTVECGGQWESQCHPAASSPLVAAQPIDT
# Chain of Mitogen-activated protein kinase 10 (Homo sapiens) (P53779 whole entry): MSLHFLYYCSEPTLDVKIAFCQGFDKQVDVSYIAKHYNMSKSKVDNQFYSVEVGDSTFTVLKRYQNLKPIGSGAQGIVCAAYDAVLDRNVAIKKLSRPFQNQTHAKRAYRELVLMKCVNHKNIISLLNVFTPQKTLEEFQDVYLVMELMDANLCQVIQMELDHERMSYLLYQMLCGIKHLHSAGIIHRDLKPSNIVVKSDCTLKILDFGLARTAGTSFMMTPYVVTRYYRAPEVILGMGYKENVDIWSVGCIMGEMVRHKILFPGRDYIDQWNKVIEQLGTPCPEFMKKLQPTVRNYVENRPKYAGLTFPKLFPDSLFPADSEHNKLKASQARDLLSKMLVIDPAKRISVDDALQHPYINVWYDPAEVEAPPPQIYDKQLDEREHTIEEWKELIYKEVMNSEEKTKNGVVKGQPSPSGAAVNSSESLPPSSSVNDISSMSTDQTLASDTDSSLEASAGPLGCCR
# Chain of Casein kinase II subunit alpha (Homo sapiens) (P68400 whole entry, looked up): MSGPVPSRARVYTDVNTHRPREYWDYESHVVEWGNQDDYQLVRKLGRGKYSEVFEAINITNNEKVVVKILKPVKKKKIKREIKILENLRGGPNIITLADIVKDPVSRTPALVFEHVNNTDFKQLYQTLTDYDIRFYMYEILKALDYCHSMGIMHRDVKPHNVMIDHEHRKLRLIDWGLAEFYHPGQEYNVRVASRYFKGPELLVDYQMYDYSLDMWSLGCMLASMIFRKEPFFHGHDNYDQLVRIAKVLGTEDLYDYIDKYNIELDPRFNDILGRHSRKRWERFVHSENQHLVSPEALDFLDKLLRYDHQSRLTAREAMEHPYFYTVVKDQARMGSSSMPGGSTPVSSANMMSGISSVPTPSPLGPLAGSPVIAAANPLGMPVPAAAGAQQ
# Chain of Phosphatidylinositol 4,5-bisphosphate 3-kinase catalytic subunit alpha isoform (Homo sapiens), P42336 [E545A] (P42336 whole entry E545A, canonical isoform): as the sequence (P42336 whole entry H1047Y, canonical isoform) above, with E545A, Y1047H counted along it
smiles,measurement,setting,value
CCOCCn1cc(C(=O)Nc2ccc(-n3nc(-c4cccnc4)cc3C(F)(F)F)cn2)ccc1=O [BI 1935],residual activity,[1],70%
same,residual activity,[2],94%
same,residual activity,[3],100%
same,residual activity,[4],75%
same,residual activity,[5],100%
same,residual activity,[6],87%
same,inhibition,[7],2.27%
same,residual activity,[8],98%
same,residual activity,[9],73%
same,residual activity,[10],103%
same,residual activity,[11],81%
same,residual activity,[12],100%
same,residual activity,[13],95%
same,residual activity,[14],90%
same,residual activity,[15],100%
same,inhibition,[16],3.2%
same,residual activity,[17],91%
same,residual activity,[18],96%
same,inhibition,[19],-5.62%
same,residual activity,[20],71%
same,residual activity,[21],81%
same,residual activity,[22],100%
same,residual activity,[23],100%
same,residual activity,[24],100%
same,residual activity,[25],100%
same,residual activity,[26],85%
same,residual activity,[27],100%
same,residual activity,[28],88%
same,residual activity,[29],47%
same,residual activity,[30],100%
same,residual activity,[31],100%
same,residual activity,[32],95%
same,residual activity,[33],87%
same,residual activity,[34],100%
same,residual activity,[35],90%
same,residual activity,[36],100%
same,residual activity,[37],100%
same,residual activity,[38],100%
same,residual activity,[39],97%
